# ChEMBL document CHEMBL3885881, “DrugMatrix”
# Organism: Rattus norvegicus
# Test: DrugMatrix - Regimen: Daily Repeat
# Type: toxicity, organism-based, Sprague-Dawley
# Design: regimen Daily Repeat, gender Male, age 6-8 weeks
# Conditions: in vivo, po, route oral GAVAGE, vehicle 100 % WATER; for ABSOLUTE BASOPHIL / ABSOLUTE EOSINOPHIL / ABSOLUTE LYMPHOCYTE / ABSOLUTE MONOCYTE / ABSOLUTE SEGMENTED NEUTROPHIL / BASOPHIL / EOSINOPHIL / ERYTHROCYTE COUNT / HEMATOCRIT / HEMOGLOBIN / LEUKOCYTE COUNT / LYMPHOCYTE / MEAN CORPUSCULAR HEMOGLOBIN / MEAN CORPUSCULAR HEMOGLOBIN CONCENTRATION / MEAN CORPUSCULAR VOLUME / MONOCYTE / NEUTROPHIL / NUCLEATED RED BLOOD CELLS / PLATELET COUNT: tissue Blood; for ALANINE AMINOTRANSFERASE / ALBUMIN / ALKALINE PHOSPHATASE / ASPARTATE AMINOTRANSFERASE / BLOOD UREA NITROGEN / CARBON DIOXIDE / CHLORIDE / CHOLESTEROL / CREATINE PHOSPHOKINASE / CREATININE / GLUCOSE / LACTATE DEHYDROGENASE / LIPASE / PHOSPHORUS / SODIUM / TOTAL BILIRUBIN / TOTAL PROTEIN / URIC ACID: tissue Plasma
# [1] = 100 mg/kg, 120 h, dose level Low, time 5 day
# [2] = 500 mg/kg, 72 h, dose level High, time 3 day
# [3] = 500 mg/kg, 120 h, dose level High, time 5 day
smiles,measurement,setting,value
CCN(CC)C(=S)SSC(=S)N(CC)CC,ABSOLUTE BASOPHIL,[1],0 CELLS/uL
same,ABSOLUTE EOSINOPHIL,[1],0 CELLS/uL
same,ABSOLUTE LYMPHOCYTE,[1],13796 CELLS/uL
same,ABSOLUTE MONOCYTE,[1],155.67 CELLS/uL
same,ABSOLUTE SEGMENTED NEUTROPHIL,[1],1615 CELLS/uL
same,BASOPHIL,[1],0%
same,EOSINOPHIL,[1],0%
same,ERYTHROCYTE COUNT,[1],5.47 x10E6/uL
same,HEMATOCRIT,[1],33.87%
same,HEMOGLOBIN,[1],13.53 G/DL
same,LEUKOCYTE COUNT,[1],15.57 x10E3/uL
same,LYMPHOCYTE,[1],89%
same,MEAN CORPUSCULAR HEMOGLOBIN,[1],24.8 pg
same,MEAN CORPUSCULAR HEMOGLOBIN CONCENTRATION,[1],39.97 G/DL
same,MEAN CORPUSCULAR VOLUME,[1],62 fL
same,MONOCYTE,[1],1%
same,NEUTROPHIL,[1],10%
same,NUCLEATED RED BLOOD CELLS,[1],0 /100WBC
same,PLATELET COUNT,[1],1356.33 x10E3/uL
same,ALANINE AMINOTRANSFERASE,[1],42.67 u/L
same,ALBUMIN,[1],4.1 G/DL
same,ALKALINE PHOSPHATASE,[1],265.33 u/L
same,ASPARTATE AMINOTRANSFERASE,[1],70 u/L
same,BLOOD UREA NITROGEN,[1],15.33 mg/dL
same,CARBON DIOXIDE,[1],31.67 mmol/L
same,CHLORIDE,[1],102.67 MEQ/L
same,CHOLESTEROL,[1],83.67 mg/dL
same,CREATINE PHOSPHOKINASE,[1],216.33 u/L
same,CREATININE,[1],0.15 mg/dL
same,GLUCOSE,[1],123.67 mg/dL
same,LACTATE DEHYDROGENASE,[1],231 u/L
same,LIPASE,[1],11.33 u/L
same,PHOSPHORUS,[1],11.73 mg/dL
same,SODIUM,[1],145.07 MEQ/L
same,TOTAL BILIRUBIN,[1],0.2 mg/dL
same,TOTAL PROTEIN,[1],6 G/DL
same,URIC ACID,[1],1.37 mg/dL
same,ABSOLUTE BASOPHIL,[2],0 CELLS/uL
same,ABSOLUTE EOSINOPHIL,[2],32 CELLS/uL
same,ABSOLUTE LYMPHOCYTE,[2],16158.67 CELLS/uL
same,ABSOLUTE MONOCYTE,[2],362.67 CELLS/uL
same,ABSOLUTE SEGMENTED NEUTROPHIL,[2],2246.67 CELLS/uL
same,BASOPHIL,[2],0%
same,EOSINOPHIL,[2],0.33%
same,ERYTHROCYTE COUNT,[2],5.54 x10E6/uL
same,HEMATOCRIT,[2],34.57%
same,HEMOGLOBIN,[2],13.7 G/DL
same,LEUKOCYTE COUNT,[2],18.8 x10E3/uL
same,LYMPHOCYTE,[2],85%
same,MEAN CORPUSCULAR HEMOGLOBIN,[2],24.73 pg
same,MEAN CORPUSCULAR HEMOGLOBIN CONCENTRATION,[2],39.63 G/DL
same,MEAN CORPUSCULAR VOLUME,[2],62.43 fL
same,MONOCYTE,[2],2.33%
same,NEUTROPHIL,[2],12.33%
same,NUCLEATED RED BLOOD CELLS,[2],0 /100WBC
same,PLATELET COUNT,[2],1410.67 x10E3/uL
same,ALANINE AMINOTRANSFERASE,[2],78.33 u/L
same,ALBUMIN,[2],3.87 G/DL
same,ALKALINE PHOSPHATASE,[2],211.67 u/L
same,ASPARTATE AMINOTRANSFERASE,[2],279.33 u/L
same,BLOOD UREA NITROGEN,[2],11.33 mg/dL
same,CARBON DIOXIDE,[2],30.33 mmol/L
same,CHLORIDE,[2],102.33 MEQ/L
same,CHOLESTEROL,[2],124 mg/dL
same,CREATINE PHOSPHOKINASE,[2],747.67 u/L
same,CREATININE,[2],0.15 mg/dL
same,GLUCOSE,[2],121.33 mg/dL
same,LACTATE DEHYDROGENASE,[2],433.33 u/L
same,LIPASE,[2],11.33 u/L
same,PHOSPHORUS,[2],10.77 mg/dL
same,SODIUM,[2],143.53 MEQ/L
same,TOTAL BILIRUBIN,[2],0.13 mg/dL
same,TOTAL PROTEIN,[2],5.93 G/DL
same,URIC ACID,[2],1.53 mg/dL
same,ABSOLUTE BASOPHIL,[3],0 CELLS/uL
same,ABSOLUTE EOSINOPHIL,[3],134 CELLS/uL
same,ABSOLUTE LYMPHOCYTE,[3],14987.33 CELLS/uL
same,ABSOLUTE MONOCYTE,[3],0 CELLS/uL
same,ABSOLUTE SEGMENTED NEUTROPHIL,[3],1378.67 CELLS/uL
same,BASOPHIL,[3],0%
same,EOSINOPHIL,[3],0.67%
same,ERYTHROCYTE COUNT,[3],4.95 x10E6/uL
same,HEMATOCRIT,[3],30.57%
same,HEMOGLOBIN,[3],12.3 G/DL
same,LEUKOCYTE COUNT,[3],16.5 x10E3/uL
same,LYMPHOCYTE,[3],90.33%
same,MEAN CORPUSCULAR HEMOGLOBIN,[3],24.83 pg
same,MEAN CORPUSCULAR HEMOGLOBIN CONCENTRATION,[3],40.2 G/DL
same,MEAN CORPUSCULAR VOLUME,[3],61.67 fL
same,MONOCYTE,[3],0%
same,NEUTROPHIL,[3],9%
same,NUCLEATED RED BLOOD CELLS,[3],0 /100WBC
same,PLATELET COUNT,[3],1031.33 x10E3/uL
same,ALANINE AMINOTRANSFERASE,[3],55 u/L
same,ALBUMIN,[3],3.83 G/DL
same,ALKALINE PHOSPHATASE,[3],254 u/L
same,ASPARTATE AMINOTRANSFERASE,[3],134.33 u/L
same,BLOOD UREA NITROGEN,[3],16.33 mg/dL
same,CARBON DIOXIDE,[3],27 mmol/L
same,CHLORIDE,[3],102.67 MEQ/L
same,CHOLESTEROL,[3],109 mg/dL
same,CREATINE PHOSPHOKINASE,[3],292.67 u/L
same,CREATININE,[3],0.16 mg/dL
same,GLUCOSE,[3],155.33 mg/dL
same,LACTATE DEHYDROGENASE,[3],217.33 u/L
same,LIPASE,[3],11.33 u/L
same,PHOSPHORUS,[3],12 mg/dL
same,SODIUM,[3],141.9 MEQ/L
same,TOTAL BILIRUBIN,[3],0.17 mg/dL
same,TOTAL PROTEIN,[3],6 G/DL
same,URIC ACID,[3],1.6 mg/dL
